In patent US8796249B2, “TGR5 modulators and methods of use thereof” (Intercept Pharmaceuticals, Inc., priority 2008, dated 2014):
Where two headings read alike, the source gives them in different places. Marks after values point to notes of the source that are not given here.

Experiments:
[1] = system: HepG2 cell; assay: HepG2 cell cytotoxicity, ATP decrease; format: cell-based
Protocol: Compounds of the invention were evaluated for cytotoxicity using standard methods known in the art. Specifically, cytotoxicity was evaluated using HEPG2 cells and monitoring ATP decrease and determining the EC50 value. […]

[2] = ionized species; values from literature; cited from earlier work
[3] = molecular target: T1, bovine serum albumin (Bos taurus, UniProt P02769); conditions: values from literature; cited from earlier work
T1 construct: dissolved at a concentration of 100 μM in 5% bovine serum albumin-saline solution (pH 7.2); from tissue; host or cells: bovine serum (only from the protein's name)
T1 sequence (P02769 25-607): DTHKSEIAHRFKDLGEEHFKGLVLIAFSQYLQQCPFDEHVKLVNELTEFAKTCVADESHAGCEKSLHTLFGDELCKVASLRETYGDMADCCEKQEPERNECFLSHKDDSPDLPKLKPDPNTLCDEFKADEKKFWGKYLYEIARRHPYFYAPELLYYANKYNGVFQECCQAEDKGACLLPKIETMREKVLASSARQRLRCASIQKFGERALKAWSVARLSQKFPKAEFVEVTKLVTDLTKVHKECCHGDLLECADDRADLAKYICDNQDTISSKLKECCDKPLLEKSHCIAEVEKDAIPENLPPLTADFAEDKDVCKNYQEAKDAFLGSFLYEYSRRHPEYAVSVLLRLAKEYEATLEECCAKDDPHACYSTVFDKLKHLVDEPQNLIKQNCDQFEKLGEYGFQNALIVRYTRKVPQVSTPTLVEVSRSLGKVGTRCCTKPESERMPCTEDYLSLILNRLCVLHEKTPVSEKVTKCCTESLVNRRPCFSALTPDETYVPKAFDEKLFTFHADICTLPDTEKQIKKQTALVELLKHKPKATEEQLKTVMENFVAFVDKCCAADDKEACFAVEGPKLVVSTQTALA

[4] = […] NaCl water solution; values from literature; cited from earlier work
[5] = Water solubility; format: physicochemical; conditions: BA as protonated species, 0.1 M HCl, pH 1; hs = highly soluble, not evaluated
Protocol: Solid compound (BA) was suspended in 5 ml of 0.1 M HCl. […] The flow rate was 150 μl/min. The mass spectrometry acquisition was performed in the multiple reaction monitoring mode using the ESI source in negative ionization. Water solubility was expressed as μmol/liter.
The water solubility was measured for the insoluble protonated species of carboxylated bile acids at a pH 1.

[6] = molecular target: T2, CAR (Homo sapiens, UniProt Q14994); assay: CAR coactivator recruitment (Lanthascreen); format: biochemical
T2 sequence (Q14994 1-352): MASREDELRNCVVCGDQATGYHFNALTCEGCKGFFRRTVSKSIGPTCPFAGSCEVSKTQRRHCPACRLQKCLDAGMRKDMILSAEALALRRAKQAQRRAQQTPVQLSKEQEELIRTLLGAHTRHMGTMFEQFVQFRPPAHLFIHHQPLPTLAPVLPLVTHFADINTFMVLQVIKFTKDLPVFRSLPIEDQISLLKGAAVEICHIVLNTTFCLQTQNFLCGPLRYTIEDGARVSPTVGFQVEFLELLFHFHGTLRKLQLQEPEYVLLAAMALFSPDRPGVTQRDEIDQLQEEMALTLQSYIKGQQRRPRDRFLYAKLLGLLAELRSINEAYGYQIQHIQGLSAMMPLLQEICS
Protocol: (§1) The selectivity of compounds of the invention was evaluated using assay methods known in the art. Specifically, the following assay methods were used: • FXR and LXR: Coactivator Recruitment (alphascreen); • TGR5: cAMP level on human intestinal cell line (NCI-H716); • PXR: Ligands Competition assay (Binding Assay) • CAR: Coactivator Recruitment (Lanthascreen)

[7] = molecular target: T1, bovine serum albumin; assay: Albumin binding by equilibrium dialysis; format: in vitro ADME; conditions: 100 μM BA in 5% bovine serum albumin-saline, pH 7.2
Protocol: The extent of albumin binding was evaluated by equilibrium dialysis at a fixed BA-albumin ratio. BA was dissolved at a concentration of 100 μM in 5% bovine serum albumin-saline solution (pH 7.2) and left to stand for 24 h at 25° C. Two milliliters of this solution was dialyzed in cellulose sacs having a molecular weight cut-off of 12-14,000 against 25 ml of saline solution. The system was equilibrated by mechanical gently shaking for 72 h at 25° C. BA concentrations of the dialyzed solution (corresponding to the free unbound fraction) and of the starting solution were determined with HPLC-ESI-MS/MS in the same conditions of the previous analysis. The percent of albumin binding was calculate from the initial BA concentration and from the unbound concentration in the dialyzed fraction. All these compounds never less present an albumin binding compatible with a relatively fast hepatic uptake, similarly to natural occurring BA. Accordingly different kinetics (slower) of the liver uptake is expected.

[8] = 1-Octanol/water partition coefficient (shake-flask); format: physicochemical; conditions: ionized species, pH 8
Protocol: Since the sulphate and sulphonated analogues are always ionised at all pH values the octanol/water partition coefficient was measured for all molecules in ionized form. 1-Octanol/water partition coefficient (log P) was evaluated using a conventional shake-flask procedure. […] The aqueous buffer was previously pre-saturated with 1-octanol, 5 ml of 1-octanol pre-saturated with water was then added and the samples were left to equilibrate for 2 weeks under continuous stirring at room temperature After centrifugation the two phases were carefully separated. BA concentration in the water phase was measured with HPLC-ESI ? MS/MS using C18 column (150 mm×2 mm i.d., 4 μm) and, as mobile phases, water containing 15 mM acetic acid pH 5 and acetonitrile. The flow rate was 150 μal/min and the column was maintained at 45° C. The mass spectrometry acquisition was performed in the multiple reaction monitoring mode using the ESI source in negative ionization.

[9] = Critical micellar concentration by surface tension (maximum bubble-pressure method); format: physicochemical; conditions: […] NaCl water solution
Protocol: The critical micellar concentration (CMC) was determined by surface tension (ST) measurements using a maximum bubble-pressure method which give surface tension values slightly affected by potential impurities like static methods are. The tensiometer was a […] Research Corp., Milwaukee, Wis.) equipped with two glass probes of 0.5 and 4.0 mm diameters connected to a source of nitrogen. The bubble frequency was 1 bubble/second in distilled water at 26° C. (P=2.7 atm) and the calibration was made with double-distilled water and methanol. The surface tension of BA sodium salts solutions in NaCl 0.15 M was measured at various concentrations inside the 0.13-50 mM range. The surface tension values were plotted against the logarithm of the bile salt concentration; the regression lines corresponding to the two parts of the curve (monomeric and micellar phases) were calculated using the method of least squares, and the intersection of the lines was taken as the CMC value. From the ST vs concentration curves the value of the surface tension at the CMC (equilibrium between monomers and multimers species) was also calculated giving information about the detergency power which is related to the size of the micelles with associate surface tension lowering capacity. The CMC was evaluated by surface tension measurements in non equilibrium conditions i.e. in conditions that impurities slightly affect the surface tension results (FIG. 1).

[10] = molecular target: T3, LXRα (Homo sapiens, UniProt Q13133); assay: LXR coactivator recruitment (alphascreen); format: biochemical; conditions: ref standard T0901317
T3 sequence (Q13133 1-447): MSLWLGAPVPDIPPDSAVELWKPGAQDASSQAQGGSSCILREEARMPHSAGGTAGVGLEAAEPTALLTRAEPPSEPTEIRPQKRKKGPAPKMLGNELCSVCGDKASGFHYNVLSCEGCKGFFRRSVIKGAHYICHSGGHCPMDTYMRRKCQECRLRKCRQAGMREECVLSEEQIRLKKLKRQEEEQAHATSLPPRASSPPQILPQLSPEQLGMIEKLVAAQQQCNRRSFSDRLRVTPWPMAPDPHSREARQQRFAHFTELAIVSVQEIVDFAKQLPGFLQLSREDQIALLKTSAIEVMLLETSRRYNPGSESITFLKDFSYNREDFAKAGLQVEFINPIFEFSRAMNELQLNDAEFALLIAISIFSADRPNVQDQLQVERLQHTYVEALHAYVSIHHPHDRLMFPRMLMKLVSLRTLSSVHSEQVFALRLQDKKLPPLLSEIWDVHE
Protocol: as §1

[11] = molecular target: T4, VDR (Homo sapiens, UniProt P11473); assay: NR selectivity assay VDR; conditions: unnamed ref standard 0.005 μM
T4 sequence (P11473 1-427): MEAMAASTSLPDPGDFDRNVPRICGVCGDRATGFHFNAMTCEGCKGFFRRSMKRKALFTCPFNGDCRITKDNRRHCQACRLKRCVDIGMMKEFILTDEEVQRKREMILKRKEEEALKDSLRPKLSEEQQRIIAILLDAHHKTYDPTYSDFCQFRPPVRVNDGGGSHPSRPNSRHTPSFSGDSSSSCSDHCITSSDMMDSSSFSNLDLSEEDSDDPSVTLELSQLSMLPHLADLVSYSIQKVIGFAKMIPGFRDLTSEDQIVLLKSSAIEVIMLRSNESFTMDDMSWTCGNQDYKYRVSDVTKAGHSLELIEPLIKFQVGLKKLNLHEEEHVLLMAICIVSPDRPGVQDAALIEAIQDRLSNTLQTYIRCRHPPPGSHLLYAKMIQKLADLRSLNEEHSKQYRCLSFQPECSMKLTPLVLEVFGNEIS

[12] = molecular target: T5, PPARδ (Homo sapiens, UniProt Q03181); assay: NR selectivity assay PPARδ; conditions: unnamed ref standard 0.004 μM
T5 sequence (Q03181 1-441): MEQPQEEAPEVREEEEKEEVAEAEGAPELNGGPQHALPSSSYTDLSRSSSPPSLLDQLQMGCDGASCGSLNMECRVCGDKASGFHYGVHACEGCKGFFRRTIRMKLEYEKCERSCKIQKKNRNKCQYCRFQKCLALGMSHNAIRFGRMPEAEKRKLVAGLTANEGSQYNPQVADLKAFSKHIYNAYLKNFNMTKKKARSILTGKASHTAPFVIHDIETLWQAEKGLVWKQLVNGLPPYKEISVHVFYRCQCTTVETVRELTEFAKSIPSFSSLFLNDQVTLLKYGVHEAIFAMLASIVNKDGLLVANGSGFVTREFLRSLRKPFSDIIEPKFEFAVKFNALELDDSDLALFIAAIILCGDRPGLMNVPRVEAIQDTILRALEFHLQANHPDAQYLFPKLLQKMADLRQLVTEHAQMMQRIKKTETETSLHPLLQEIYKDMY

[13] = system: Intestinal Bacteria; assay: In vitro metabolic stability in human stool culture; conditions: human stool cultures
Protocol: Homogenized fresh human stools (500 mg) were transferred into sterile vials to which 5 mL of sterilized chopped meat-glucose medium (Scott Lab., Fiskville, R.I.) was added. BA were then added at a final concentration of 0.05 mM. Vials were incubated at 37° C.; then, at 0, 1, 2, 4, 8 and 24 h after the addition of the BA, the reaction was stopped with 150 μL of 30% KOH. The samples were centrifuged at 3500 rpm for 10 min; from the supernatant the BA were isolated by C-18 solid-phase extraction and analyzed by TLC and HPLC-ES-MS/MS.
Thin-layer chromatography (TLC), utilizing silica gel 0.25 mm thickness plates (Merck, Darmstat, Germany), was employed as the first screening test. The solvent system used for the separation of conjugated BA was composed of propionic acid/isoamyl acetate/water/N-propanol (3:4:1:2, v/v/v/v; solvent I), and that of the unconjugated BA was acetic acid/carbon tetrachloride/isopropyl ether/isoamyl acetate/water/N-propanol/benzene (1:4:6:8:2:2, v/v/v/v/v/v; solvent II).

[14] = Previous study of oleanolic acid (OA) in animals; format: in vivo
Protocol: Therefore, OA is administered at the dose of 50 mg/kg/d in this study.

[15] = BA as protonated species; values from literature; cited from earlier work
[16] = molecular target: T6, PXR (Homo sapiens, UniProt O75469); assay: PXR ligands competition assay (binding assay); conditions: ligands competition assay (binding assay); ref standard SR-12183
T6 sequence (O75469 1-434): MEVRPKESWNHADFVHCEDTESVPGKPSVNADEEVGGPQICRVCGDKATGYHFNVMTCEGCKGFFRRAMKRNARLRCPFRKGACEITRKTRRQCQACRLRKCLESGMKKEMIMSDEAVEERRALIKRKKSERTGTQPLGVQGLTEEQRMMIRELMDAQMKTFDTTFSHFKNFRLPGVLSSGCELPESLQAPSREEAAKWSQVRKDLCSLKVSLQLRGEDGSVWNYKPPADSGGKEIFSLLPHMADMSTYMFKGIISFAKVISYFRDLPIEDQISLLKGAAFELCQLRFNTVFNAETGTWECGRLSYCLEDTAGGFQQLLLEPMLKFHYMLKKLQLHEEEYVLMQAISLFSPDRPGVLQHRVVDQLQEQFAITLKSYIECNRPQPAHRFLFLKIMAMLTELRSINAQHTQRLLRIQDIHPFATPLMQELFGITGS
Protocol: as §1

[17] = coactivator recruitment (Lanthascreen), ref standard CITCO

CN[C@@H]1C[C@H]2O[C@@](C)([C@@H]1OC)n1c3ccccc3c3c4c(c5c6ccccc6n2c5c31)C(=O)NC4 [Staurosporine, reference compound]
EC50 ([1]; human): 15 µM

C[C@H](CCC(=O)NCCS(=O)(=O)O)[C@H]1CC[C@H]2[C@@H]3[C@@H](O)C[C@@H]4C[C@H](O)CC[C@]4(C)[C@H]3CC[C@]12C [TUDCA]
LogPA- (1-octanol-water partition coefficient) [2]: 1.1*
Albumin Binding [3]: 67* %
CMC […] Na+ [4]: 2.2* mM
Ws (water solubility) [5]: hs

C[C@H](CCC(=O)NCCS(=O)(=O)O)[C@H]1CC[C@H]2[C@@H]3[C@H](O)C[C@@H]4C[C@H](O)CC[C@]4(C)[C@H]3CC[C@]12C [TCDCA]
LogPA- (1-octanol-water partition coefficient) [2]: 0.9*
Albumin Binding [3]: 70* %
CMC […] Na+ [4]: 3.0* mM
Ws (water solubility) [5]: hs

C[C@H](CCC(=O)O)[C@H]1CC[C@H]2[C@@H]3[C@@H](O)C[C@@H]4C[C@H](O)CC[C@]4(C)[C@H]3CC[C@]12C [UDCA, reference compound]
EC50 [6, 17]: > 250 µM
Albumin Binding [7]: 94%
EC50 [1]: > 1000 µM
LogPA- (1-octanol-water partition coefficient) [8]: 2.2
Ws (water solubility) [5]: 7.5 µM
CMC […] Na+ [9]: 6.0 mM
STCMC (surface tension at CMC) [9]: 50.5 Dyne/cm
LXRα EC50 [10]: No
VDR EC50 [11]: No
PPARδ EC50 [12]: No

C[C@H](CCC(=O)O)[C@H]1CC[C@H]2[C@@H]3CC[C@@H]4C[C@H](O)CC[C@]4(C)[C@H]3CC[C@]12C [LCA, lithocholic acid]
CAR EC50 [6, 17]: No
LXRα EC50 [10]: No
PPARδ EC50 [12]: No

C[C@H](CCC(=O)O)[C@H]1CC[C@H]2[C@@H]3[C@H](O)C[C@@H]4C[C@H](O)CC[C@]4(C)[C@H]3CC[C@]12C [CDCA, chenodeoxycholic acid]
EC50 [6]: > 250 µM
Albumin Binding [7]: 93%
half-life time [13]: almost one hour
LogPA- (1-octanol-water partition coefficient) [8]: 2.2
CMC […] Na+ [9]: 3.2 mM
STCMC (surface tension at CMC) [9]: 45.5 Dyne/cm
LXRα EC50 [10]: No
VDR EC50 [11]: No
PPARδ EC50 [12]: No

CC1(C)CC[C@]2(C(=O)O)CC[C@]3(C)C(=CC[C@@H]4[C@@]5(C)CC[C@H](O)C(C)(C)[C@@H]5CC[C@]43C)[C@@H]2C1 [OA, oleanolic acid]
food aversion [14]: did not cause food aversion
toxicity ([14]; dose of 100 mg/kg/day): some signs of toxicity
tolerability ([14]; lower dose than 100 mg/kg/day): well tolerated

C[C@H](CCC(=O)O)[C@H]1CC[C@H]2[C@@H]3[C@H](O)C[C@@H]4C[C@H](O)CC[C@]4(C)[C@H]3C[C@H](O)[C@]12C [CA]
CMC […] Na+ [4]: 11* mM
EC50 ([1]; read-out: HepG2 cell Cytotoxicity ATP decrease EC50): > 1000 µM
Ws (water solubility) [15]: 273* μM
PXR EC50 [16]: No
LXRα EC50 [10]: No
